Laboratory results from patent US20100260671A1, “COMPOUNDS AND METHODS FOR THE DIAGNOSIS AND TREATMENT OF AMYLOID ASSOCIATED DISEASES” (THE REGENTS OF THE UNIVERSITY OF CALIFORNIA, priority 2007, published 2010).
Entries after “also recorded” stand apart in the source; their conditions may differ. Values belong to the compound of their own block, whether it stands above or below them.

Key:
[1] = Octanol/PBS partition coefficient (log P), experimental; conditions: for logP: octanol/PBS buffer
Aβ fibrils (anti-Aβ IgG) = Aβ fibrils (anti-Aβ IgG) (Homo sapiens, UniProt P05067); conditions: for Emax: read-out: % Max Inhib.
Sequence of Aβ fibrils (anti-Aβ IgG) (P05067 672-713 limits assumed): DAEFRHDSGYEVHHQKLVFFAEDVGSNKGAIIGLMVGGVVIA

[2] = target: T1, Aβ(1-42) ion channel activity (Homo sapiens, UniProt P05067); assay: Planar lipid bilayer Aβ ion channel assay, Method 1 (POPE:POPG, pre-incubated Aβ); format: biochemical; conditions: for membrane lasts: Method 1, incubated at 4:1 with Aβ, average of experiments
T1 construct: Aβ(1-42) (Biopeptides) was initially dissolved in deionized water at 1 mg/ml (221.5 μM); purchased Biopeptide, Inc.
T1 sequence (P05067 672-713 limits assumed): as above
Protocol: […] The Aβ sample was pre-incubated at RT for 12-18 hours. The molecules of interest can be pre-incubated with Aβ sample at various concentrations.
Bilayer set-up and recording system: Planar lipid bilayer was formed by the so-called “painting technique” over a 250-μm aperture on a Delrin cup (Warner Instruments) separating two compartments (cis and trans) of a bilayer setup. A lipid mixture of 1-palmitoyl-2-oleoyl phosphatidyletanolamine (POPE): palmitoyl-oleyl-phosphatidylglycerol (POPG) (Avanti Polar Lipids), 1:1 at 25 mg mL-1 in heptane was applied to the aperture which is pre-treated with 2 μL of the same lipid mixture (20 mg mL^−1) in hexane on each side. The recording buffer in cis compartment is 100 mM K2HPO4/KH2PO4 pH 7.4, while in the trans compartment a buffer with pre-incubated Aβ overnight was used.

Aβ(1-42) ion channels = target: T2, Aβ(1-42) ion channels (Homo sapiens, UniProt P05067); assay: Functional ion channel inhibition assay, planar lipid bilayer (Example 7); format: biochemical; conditions: for Rank of inhibitory effect on Aβ ion channel activity: repeated experiments; for Inhibition of de-novo Aβ ion channel formation: molar ratio to Aβ 1:1, added at the same time as 37 μM Aβ
T2 construct: Aβ(1-42) (Biopeptides) was initially dissolved in deionized water at 1 mg/ml (221.5 μM); purchased Biopeptide, Inc.
T2 sequence (P05067 672-713 limits assumed): as above
Source text: Functional Ion Channel Inhibition Assays: A functional assay has been developed to investigate the inhibition of neurotoxic ion channel activity of Aβ peptides in reconstituted membrane bilayers and in aneuronal cell line by small molecules. The assay is based on ultra-sensitive electrophysiological recordings of the ion channel activity of Aβ. This ion channel-activity assay is designed to determine whether small molecules that bind to Aβ fibrils will inhibit ion channel activity. Compounds that inhibit ion channel activity are likely candidates for therapeutics and diagnostic agents for amyloid-associated diseases. This Example presents results that nicotine, tannic acid, and Congo Red are able to inhibit the ion channel activity of Aβ oligomers in planar lipid bilayers.
1. The lipid mixture was made from POPE:POPG (Avanti Polar Lipids) at 25 mg/ml (1:1) in Heptane. The pretreatment lipid solution was POPE:POPG 20 mg/mL in Hexane.
2. The bilayer was formed in classic bilayer cups and chamber (Warner Instruments). This 2-part system consists of a black Delrin chamber and a cup of Delrin. Cups and chambers are designed such that addition of equal volumes to the cup and chamber (cis and trans sides) results in a balanced solution height, minimizing any pressure gradients across the bilayer membrane.
3. The bilayer was formed over a 250 μm hole in a partition separating two Delrin compartments, the so called “painting technique.” First, droplets of pretreatment lipid solution were placed on both sides of the hole, using 100 uL-Hamilton syringe. Once the droplet of hexane evaporates, both chambers (cis and trans) were symmetrically filled with 900 uL of buffer solution, 100 mM KH2PO4/K2HPO4 pH 7.4, at room temperature.
4. When the bilayer set-up was already in place with Ag/AgCl electrodes in Faraday cage (a bilayer workstation which provides critical shielding of electromagnetic interference from outside sources and isolate vibration), the lipid solution (POPE:POPG in Heptane) was painted directly over the hole by using a thin paintbrush. A researcher gently blew underneath the hole by using the Pasteur pipette to thin out the bilayer until the appropriate capacitance was obtained (80-120 pF).
5. A voltage of ±100 mV was applied for at least 10 minutes to test stability of lipid bilayer.
Aβ(1-42) (Biopeptides) was initially dissolved in deionized water at 1 mg/ml (221.5 μM), and stored at −20° C. The stock solution is aliquotted to sufficient amount for each time use (90 uL). After the stable bilayer is constituted, the Aβ(1-42) solution was added to the trans side of the chamber to obtain a final concentration of 37 μM. The solution was mixed well in the chamber under stirring for 5 minutes
Congo Red (Sigma) was dissolved in DI Water to achieve a concentration of 2.5 mg/ml (3.58 mM) as a stock solution. (−) Nicotine Hemasulfate (Sigma) was diluted to 1.89 mM in DI Water. Tannic Acid (Riedel-de Haen) was diluted to 20 mM in DI Water.
The solution of inhibitory molecule was added to cis and trans sides to make a desired final concentration (1:1 molar ratio) at the same time as Aβ.
For Nicotine, the solution was added after observing current activities of Aβ to obtain 1:1, 1:2, 1:3, 1:4 molar ratio.

[3] = target: T3, Aβ(1-40) ion channel activity (Homo sapiens, UniProt P05067); assay: Planar lipid bilayer Aβ ion channel assay, Method 2 (POPE:DOPS, Aβ proteoliposomes); format: biochemical; conditions: for Small molecule concentration at which no ion channel activity is observed: Method 2, added after observing events
T3 construct: Aβ(1-40) (Biopeptide, Inc.) powder was initially solubilized lyophilized in DiH2O at 1 mg/mL; purchased Biopeptide, Inc
T3 sequence (P05067 672-711 limits assumed): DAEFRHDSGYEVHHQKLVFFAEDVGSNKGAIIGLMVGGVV
Protocol: Method 2: Planar lipid bilayer was formed by the so-called “painting technique” over a 250-μm aperture on a Delrin cup (Warner Instruments) separating two compartments (cis and trans) of a bilayer setup. A lipid mixture of 1-palmitoyl-2-oleoyl phosphatidyletanolamine (POPE) (Avanti Polar Lipids) and Dioleoylphosphatidylserine (DOPS) (Avanti Polar Lipids), 1:1 at 10 mg mL-1 in heptane was applied on the aperture which is pre-treated with 2 μL of the same lipid mixture in hexane on each side. Both compartments were filled symmetrically with 800 μL of 70 mM KCl, […]. A glass pipette with a smooth bent tip was used to blow air bubble under the aperture to thin out the droplet of lipid to obtain a planar lipid bilayer (with capacitance >80 pF). Membrane stability was determined by applying ±100 mV for 10 minutes and monitoring a constant current baseline without instabilities in current. The capacitance of the membrane was monitored throughout the experiment.
Monomerization of Aβ: Aβ powder (Biopeptide, Inc.) was initially solubilized in Hexafluoroisopropanol (HFIP) at 1 mM for 21 hours in a glass vial, with 3 times of vortexing throughout the incubation period. The solution was diluted with cold nanopure water (2:1 H2O:HFIP) vortexed, fractionated in desire amounts, and immediately frozon in a CO2/acetone bath. Each fraction was covered with parafilm that was punctured twice to allow solvent vapors to escape. The fractions were lyophilized for 2 days to obtain monomerized Aβ.
Preparation of Aβ proteoliposomes: Aβ(1-40) (Biopeptide, Inc.) powder was initially solubilized lyophilized in DiH2O at 1 mg/mL and stored in −80° C. before use. 20 μL of DOPS was evaporated in CHCl3 (10 mg mL^−1) under vacuum and formed liposomes using hydration method. After obtaining a thin film of lipid, 30 μL of 1M Potassium Aspartate pH 7.2 was added, followed by 5 minutes of bath sonication. The liposome suspension was then mixed with 20 μL of Aβ (1-40) solution (1 mg/mL) and sonicated for 5 minutes.
In order to promote fusion of Aβ proteoliposomes into the bilayer, an ionic gradient of 370 mM KCl was used on the cis side (the side of proteoliposome addition) and 70 mM KCl on the trans side of the bilayer setup. 10-20 μL of the Aβ proteoliposome solution was added to the cis compartment and stirred vigorously for 5-10 minutes. The molecules of interest can be tested by addition to the chamber after observing events.

[4] = target: Aβ fibrils (binding of anti-Aβ IgG clone 6E10) (Homo sapiens, UniProt P05067); assay: ELISA-based assay: inhibition of anti-Aβ IgG (clone 6E10) binding to Aβ fibrils; conditions: control experiments, FIG. 2 panel c
Sequence of Aβ fibrils (binding of anti-Aβ IgG clone 6E10) (P05067 672-713 limits assumed): as the sequence (P05067 672-713 limits assumed) above

Structure (SMILES): CN1CCCC1COC(=O)c1ccccn1 (stereo not shown) [Compound 15, (s)-1-Methylpyrrolidine-2-methyl picolinate]
logP [1]: 0.69 ± 0.08
Conc at Max Inhib. (Aβ fibrils (anti-Aβ IgG); anti-Aβ IgG-Aβ fibril binding): 50 mM
Emax (Aβ fibrils (anti-Aβ IgG)): 51%

Structure (SMILES): CN1CCC[C@H]1COC(=O)c1cncc(Br)c1 [Compound 14]
Conc at Max Inhib. (Aβ fibrils (anti-Aβ IgG); anti-Aβ IgG-Aβ fibril binding): 50 mM
Emax (Aβ fibrils (anti-Aβ IgG)): 68%

Structure (SMILES): COc1cc(/C=C/C(=O)CC(=O)/C=C/c2ccc(O)c(OC)c2)ccc1O [Curcumin]
Observe no ion channel activity in (experiments out of total) ([2]; Method 1, incubated at 2:1): Observe no ion channel activity in 3 out of 6
membrane lasts / membrane stability ([2]; Method 1, incubated at 2:1): (incubated at 2:1), membrane lasts ~50 minutes

Structure (SMILES): Cl.NCCc1ccc(O)c(O)c1 [Dopamine HCl]
Observe no ion channel activity in (experiments out of total) ([2]; Method 1, incubated at 4:1): Observe no ion channel activity in 3 out of 4
membrane lasts [2]: (incubated at 4:1), membrane lasts ~70 minutes

Structure (SMILES): Nc1c(/N=N/c2ccc(-c3ccc(/N=N/c4cc(S(=O)(=O)O)c5ccccc5c4N)cc3)cc2)cc(S(=O)(=O)O)c2ccccc12 [Congo Red]
Rank of inhibitory effect on Aβ ion channel activity (Aβ(1-42) ion channels): then by Congo Red

Structure (SMILES): CN1CCCC1c1cccnc1 (single isomer, unassigned; (-)) [(−)-Nicotine]
Time to almost complete disruption of preformed ion channels (Aβ(1-42) ion channels; 4-fold molar excess with respect to Aβ): ≤ 10 min
Disruption of Aβ ion channel activity on addition at increasing concentration (Aβ(1-42) ion channels; added after observing Aβ current, 1:1 to 1:4 molar ratio, 37 μM Aβ): concentration-dependent disruption of Aβ ion channel activity
Disruption of preformed Aβ ion channels (Aβ(1-42) ion channels; molar ratio nicotine to Aβ 4:1): disrupted preformed Aβ channels almost completely
Inhibition of de-novo Aβ ion channel formation (Aβ(1-42) ion channels): sufficient to inhibit the de-novo formation of Aβ ion channels; also recorded: did not result in ion channel activity during the entire test period (90 min)
Rank of inhibitory effect on Aβ ion channel activity (Aβ(1-42) ion channels): strongest inhibitory effect
LogP expt'l ([1]; octanol/PBS): 0.20 ± 0.01
membrane lasts / membrane stability ([2]; Method 1, incubated at 2:1): (incubated at 2:1), unstable membrane
Observe no ion channel activity in (experiments out of total) ([2]; Method 1, incubated at 4:1): Observe no ion channel activity in 4 out of 4
membrane lasts [2]: (incubated at 4:1), membrane lasts ~70 minutes
% Max Inhib. (Aβ fibrils (anti-Aβ IgG); anti-Aβ IgG-Aβ fibril binding): 84%
Conc at Max Inhib. (Aβ fibrils (anti-Aβ IgG); anti-Aβ IgG-Aβ fibril binding): 1,000 mM

Structure (SMILES): CNCCc1ccc(O)c(O)c1.Cl [N-methyl dopamine hydrochloride]
Small molecule concentration at which no ion channel activity is observed [3]: Observe no ion channel activity at 450 μM small

Structure (SMILES): CN1CCCC1c1cncc(Br)c1 (stereo not shown) [Compound 8, 5-Bromonicotine]
logP (physchem): 2.1 ± 0.3
Conc at Max Inhib. (Aβ fibrils (anti-Aβ IgG); anti-Aβ IgG-Aβ fibril binding): 700 mM
Emax (Aβ fibrils (anti-Aβ IgG)): 83%

Structure (SMILES): O=C([O-])c1ccccc1O.[Na+] [Salicylic Acid sodium salt]
Observe no ion channel activity in (experiments out of total) ([2]; Method 1, incubated at 4:1): Observe no ion channel activity in 3 out of 3
membrane lasts [2]: (incubated at 4:1), membrane lasts ~45 minutes

Inhibition of de-novo Aβ ion channel formation (Aβ(1-42) ion channels): inhibited ion channel activity of Aβ
Structure (SMILES): O=C(OC[C@H]1O[C@@H](OC(=O)c2cc(O)c(O)c(OC(=O)c3cc(O)c(O)c(O)c3)c2)[C@H](OC(=O)c2cc(O)c(O)c(OC(=O)c3cc(O)c(O)c(O)c3)c2)[C@@H](OC(=O)c2cc(O)c(O)c(OC(=O)c3cc(O)c(O)c(O)c3)c2)[C@@H]1OC(=O)c1cc(O)c(O)c(OC(=O)c2cc(O)c(O)c(O)c2)c1)c1cc(O)c(O)c(OC(=O)c2cc(O)c(O)c(O)c2)c1 [Tannic Acid]
Observe no ion channel activity in (experiments out of total) ([2]; Method 1, incubated at 4:1): Observe no ion channel activity in 3 out of 5
membrane lasts [2]: (incubated at 4:1), membrane lasts ~75 minutes

Structure (SMILES): OCCOCCOCCOCCN1CCCC1c1cccnc1 (stereo not shown) [Compound 10, 2-(2-(2-(2-(2-(pyridin-3yl)pyrrolidin-1-yl)ethoxy)ethoxy)ethoxy)-ethanol]
logP [1]: -0.41 ± 0.05
Conc at Max Inhib. (Aβ fibrils (anti-Aβ IgG); anti-Aβ IgG-Aβ fibril binding): 100 mM
Emax (Aβ fibrils (anti-Aβ IgG)): 81%

Structure (SMILES): NC[C@H](O)c1ccc(O)c(O)c1.O.O=C(O)C(O)C(O)C(=O)O [L-(−)-norepinephrine (+)-bitartrate salt monohydrate]
Small molecule concentration at which no ion channel activity is observed [3]: Observe no ion channel activity at 50 μM small

Structure (SMILES): CN1CCC[C@H]1COC(=O)c1cccnc1 [Compound 13, (s)-1-Methylpyrrolidine-2-methyl nicotinate]
logP [1]: -0.5 ± 0.02
Conc at Max Inhib. (Aβ fibrils (anti-Aβ IgG); anti-Aβ IgG-Aβ fibril binding): 50 mM
Emax (Aβ fibrils (anti-Aβ IgG)): 54%

Structure (SMILES): c1cncc(C2CCCN2)c1 (stereo not shown) [Compound 7, Nornicotine]
logP [1]: -0.93 ± 0.04
Conc at Max Inhib. (Aβ fibrils (anti-Aβ IgG); anti-Aβ IgG-Aβ fibril binding): 700 mM
Emax (Aβ fibrils (anti-Aβ IgG)): 98%

Membrane observation ([3]; Method 2, 50 μM small molecule): molecule, membrane broke
Structure (SMILES): N[C@@H](Cc1ccc(O)c(O)c1)C(=O)O [L-DOPA]
Small molecule concentration at which no ion channel activity is observed [3]: Observe no ion channel activity at 50 μM small

Inhibition of the interaction between the IgGs and Aβ fibrils (control compound) [4]: No inhibition
Structure (SMILES): O=S(=O)([O-])c1ccc(O)c2ccccc12.[Na+] [1-naphthol-4-sulfonate]
